US20060159669A1, “Novel uses of PPAR modulators and professional APCs manipulated by the same” (priority 2003, published 2006)
Entries after “also recorded” stand apart in the source; their conditions may differ. One block for each compound: values may come before it.

Experiments:
CD1d = CD1d mRNA expression (RT-PCR, Affymetrix microarray) in monocyte-derived DC; assay type: cell-based, human; conditions: IDC; for Induction of CD1d by receptor-specific agonists: 2.5 microM RSG, 200 nM GW7845, 1 microM GW501516, 20 microM WY14643, 1 microM T0901317, FIG. 5B
Experimental: DC generation and maturation. Highly enriched monocytes (98% CD14+) were obtained from buffy coats of healthy donors (provided by the local blood center) by Ficoll gradient centrifugation and immunomagnetic cell separation using anti-CD14-conjugated microbeads (VarioMACS; Miltenyi Biotec). Human monocyte-derived IDCs were prepared as described previously (Sallusto and Lanzavecchia, 1994) with minor modification. In brief, monocytes were resuspended into six-well culture dishes at a density of 1.5×10^6 cells/ml and cultured in RPMI 1640 supplemented with 10% FBS (Invitrogen), containing 800 U/ml GM-CSF (Leucomax) and 500 U/ml IL-4 (Peprotech). Cells were cultured for 5 or 6 days and the IL-4 and GM-CSF addition was repeated at day 2 to obtain a population of immature DCs. In some experiments FBS was replaced with human AB serum (Sigma). To obtain MDCs, IDCs were treated with a mixture of cytokines: 10 ng/ml TNF-alpha (Peprotech), 10 ng/ml IL-1beta (Peprotech), 1000 U/ml IL-6 (Peprotech), 1 microg/ml PGE2 (Sigma) and 800 U/ml GM-CSF for 24 hr (Jonuleit et al., 1997).
(§1) Ligands or vehicle control (50% DMSO/ethanol) were added to the cell culture starting from the first day.
Microarray experiment. Total RNA was isolated using Trizol Reagent (Invitrogen) and further purified by using the RNeasy kit (Quiagen). cRNA was generated from 5 microg of total RNA by using the SuperScript Choice kit (Invitrogen) and the High Yield RNA transcription labeling kit (Enzo Diagnostics). Fragmented cRNA was hybridized to Affymetrix (Santa Clara, Calif.) arrays (HU95A) according to Affymetrix standard protocols. Preliminary data analysis was performed by the Microarray Core Facility at University of California at Irvine. Further analysis was performed using GeneSpring 6.0 (Silicon Genetics, Redwood City, Calif.). These analyses provided a signal for each specific transcript that was subsequently normalized by comparing to the median signal (arbitrary value of 1.0) obtained from the whole array.
(§2) Real-time RT-PCR. […] The following primers and probes were used: […]

PPARg = molecular target: T1, PPARg (Homo sapiens, UniProt P37231); test: FABP4 and other PPARg target gene mRNA expression by real-time RT-PCR in differentiating monocyte-derived DC; assay type: cell-based; conditions: for Induction of FABP4 by receptor-specific agonists: IDC, 2.5 microM RSG, 200 nM GW7845, 1 microM GW501516, 20 microM WY14643, 1 microM T0901317, FIG. 5A
T1 construct: endogenous in cells; host or cells: human monocyte-derived dendritic cells (CD14+ monocytes from buffy coats, GM-CSF + IL-4)
T1 sequence (P37231 1-505): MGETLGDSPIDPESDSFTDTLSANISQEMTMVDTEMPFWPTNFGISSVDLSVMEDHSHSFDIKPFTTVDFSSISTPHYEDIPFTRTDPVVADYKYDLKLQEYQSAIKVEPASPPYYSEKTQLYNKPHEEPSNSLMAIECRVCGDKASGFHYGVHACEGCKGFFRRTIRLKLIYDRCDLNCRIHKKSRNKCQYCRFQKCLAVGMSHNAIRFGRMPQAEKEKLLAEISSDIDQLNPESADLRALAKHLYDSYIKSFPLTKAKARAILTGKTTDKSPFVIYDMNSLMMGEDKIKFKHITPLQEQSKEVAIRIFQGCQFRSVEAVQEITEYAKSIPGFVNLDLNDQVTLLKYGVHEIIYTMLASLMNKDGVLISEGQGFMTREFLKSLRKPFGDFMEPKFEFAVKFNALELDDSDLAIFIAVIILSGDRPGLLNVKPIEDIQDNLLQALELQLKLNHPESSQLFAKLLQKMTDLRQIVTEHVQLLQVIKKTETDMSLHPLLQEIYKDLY
Experimental: DC generation and maturation. Highly enriched monocytes (98% CD14+) were obtained from buffy coats of healthy donors (provided by the local blood center) by Ficoll gradient centrifugation and immunomagnetic cell separation using anti-CD14-conjugated microbeads (VarioMACS; Miltenyi Biotec). […] Cells were cultured for 5 or 6 days and the IL-4 and GM-CSF addition was repeated at day 2 to obtain a population of immature DCs. In some experiments FBS was replaced with human AB serum (Sigma).
as §1, §2

iNKT cells = test: Expansion of iNKT cells by alpha-GalCer pulsed DC in autologous PBMC coculture; assay type: cell-based, human; conditions: for Induction of iNKT (Valpha24+ Vbeta11+) cell expansion vs untreated DC: 5-day coculture
Experimental: FACS analysis. Cell staining was performed using alpha-GalCer-loaded APC-labeled CD1d-tetramer (kindly provided by A. Herbelin) and FITC-, Cyc- or PE-conjugated mAbs. Labeled antibodies for flow cytometry included anti-CD161-Cyc, CD8-PE, CD25-PE, CD1a-PE, CD1d-PE, CD86-PE, CD83-PE, CD206-PE, CD3- FITC, CD36-FITC, CD80-FITC, CD209-FITC, HLA-DR-FITC and isotype-matched controls (BD PharMingen), anti-Vbetal 1-PE and anti-Valpha24-FITC (Immunotech). The cells were assessed for fluorescence intensity using EPICS Elite flow cytometer (Beckman Coulter) or with FACS Calibur cytometer (Beckton Dickinson). Data analysis was performed using WinMDI software (Joseph Trotter, The Scripps Research Institute, La Jolla, Calif.).
Expansion of iNKT cells. IDCs were treated with or without the inflammatory mixture as described previously and with 100ng/ml alpha-GalCer for 24 hr to obtain alpha-GalCer-loaded MDC or IDC, respectively. alpha-GalCer pulsed IDCs or MDCs (2×10^5 cells/ml) were cocultured with 2×10^6 monocyte depleted autologous PBMC for 5 days in 24 well plates. The expansion of iNKT cells was monitored by quantifying Valpha24+ Vbetal 1+ and Valpha24+ CD161+ cells by FACS analysis. The specificity of CD1d-restricted NKT cells was also verified by alpha-GalCer loaded APC-labelled CD1d tetramer staining.

- Block of the more pronounced FABP4 increase in human AB serum (PPARg; 5 microM GW9662, FBS replaced with human AB serum): blocked effectively
Compound: O=C(Nc1ccccc1)c1cc([N+](=O)[O-])ccc1Cl [GW9662]
- Inhibition of PPARg specific induction of CD1d by antagonist (CD1d; 5 microM GW9662 with 2.5 microM RSG): inhibited
- Inhibition of FABP4 up-regulation by PPARg antagonist (PPARg; 5 microM GW9662, untreated and 2.5 microM RSG treated DC): able to prevent the up-regulation of FABP4; also recorded: inhibited

- Induction of FABP4 by receptor-specific agonists (PPARg): much less potently
Compound: Cc1cccc(Nc2cc(Cl)nc(SCC(=O)O)n2)c1C [Wy14,643]

Compound: CCCCCCCCCCCCCCCCCCCCCCCCCC(=O)N[C@@H](CO[C@H]1O[C@H](CO)[C@H](O)[C@H](O)[C@H]1O)[C@H](O)[C@H](O)CCCCCCCCCCCCCC [alpha-GalCer, alpha-galactosyl-ceramide]
- Expansion of Valpha24+ Vbeta11+ iNKT cells by glycolipid loading of DC (iNKT cells; DC pulsed with 100ng/ml alpha-GalCer for 24 hr, 5 days coculture): necessary for the potent induction; also recorded: remarkable expansion of iNKT cells

- Induction of CD1d by receptor-specific agonists (CD1d): failed to activate CD1d
Compound: O=S(=O)(c1ccccc1)N(CC(F)(F)F)c1ccc(C(O)(C(F)(F)F)C(F)(F)F)cc1 [T0901317]

- Induction of CD1d by receptor-specific agonists (CD1d): turn on gene expression
- Induction of FABP4 by receptor-specific agonists (PPARg): specifically up-regulated
Compound: COC(=O)c1ccccc1N[C@@H](Cc1ccc(OCCc2nc(-c3ccccc3)oc2C)cc1)C(=O)O [GW7845]

Compound: CN(CCOc1ccc(CC2SC(=O)NC2=O)cc1)c1ccccn1 (stereo not shown) [RSG, Rosiglitazone]
- Induction of iNKT (Valpha24+ Vbeta11+) cell expansion vs untreated DC (iNKT cells; alpha-GalCer loaded RSG treated IDC, depending on the donor): 1.5-10.25 fold
- Induction of iNKT (Valpha24+ Vbeta11+) cell expansion vs untreated DC (iNKT cells; alpha-GalCer loaded RSG treated MDC as stimulator): 1.1-4 fold
